Experimental data as given in patent publication US4456614A, “3-Amino-1-[(1,4-benzodioxan)-2-yl-methoxy]-2-propanols, pharmaceutical compositions thereof, and their use as medicaments” (Pierre Fabre S.A., priority 1980, dated 1984).
Counter-ions that a name gives are not always drawn.

Columns and labels:
[1] = tested on: ventricular tachycardia of digitalic origin; assay: Ventricular tachycardia of digitalic origin (ouabain) in anesthetized dogs; assay type: in vivo; conditions: doses of 2 and 5 mg/kg
From the text: (a) Action with respect to ventricular tachycardia of digitalic origin (LUCHESI and HARDMAN--J. Pharmacol. exp. Ther., 1961, No. 132, pages 372 to 81).
Method: Creation of a stable ventricular tachycardia in ten dogs (anesthetized) by successive intravenous injections of ouabain.

[2] = tested on: auricular tachycardia produced by aconitine; assay: Auricular tachycardia produced by aconitine in dogs; assay type: in vivo; conditions: 5 mg/kg
From the text: (b) Influence on an auricular tachycardia produced by aconitine.
Method: (D. SCHERF--Proc. Soc. exp. Biol., 1947, 64, 233). A tachycardia is caused in dogs by intramural injection of aconitine in the right atrium near the sinusoidal node.
The rhythm is increased in proportions of 80 to 100%. The auriculo-ventricular tracks show normal permeability, the ventricles are driven at the same frequency.

[3] = tested on: isolated atrium (rabbit right atrium); assay: Effect on the frequency of spontaneous flutterings of the isolated atrium; conditions: for inhibition at 10 µg/mL: Oryctolagus cuniculus, 0.4 h, after 24 minutes, 1 mg (per 100 ml), read-out: Percentage of reduction of the frequency
Procedure: (c) Effect on the frequency of spontaneous flutterings of the isolated atrium. Method: Rabbit right atrium in survival in a Ringer-Locke's solution. The substances to be studied are introduced into the tank (at the rate of 0.5 and 1 mg per 100 ml) and remain in contact with the myocardial tissue for 24 minutes.

[4] = tested on: isolated rabbit atrium; assay: Activity on the electrosystolic entrainment of the isolated rabbit atrium; conditions: isolated rabbit right atrium, Ringer-Locke's solution
Procedure: (d) Activity on the electrosystolic entrainment of the isolated rabbit atrium (G. S. DAWES--Pharmacol. Rev., 4, 43-84, 1952).
Method: Rabbit right atrium in a Ringer-Locke's solution.
After determination of the threshold voltage for the entrainment of the muscle, the latter is subjected to frequencies which increase in successive steps until obtaining a maximum frequency for which the tissue is incapable of responding to the stimuli.
The product is added to the bath. Three electric entrainments are effected in the following 25 minutes. The experiment is then continued for one hour after the rinsing of the tank.

[5] = tested on: adrenergic receptors; assay: Inhibitory property of the adrenergic receptors (isoprenaline tachycardia in dogs); assay type: in vivo
From the text: (2) Search for an inhibitory property of the adrenergic receptors
Method: Isoprenaline tachycardia in dogs. Simultaneous recording of the heart rate and of the arterial pressure.

[6] = tested on: cardiovascular system; assay: Systemic effects in dogs; assay type: in vivo; conditions: 1, 2 and 5 mg/kg
Procedure: (3) Systemic effects in dogs
Doses used: 1, 2 and 5 mg/kg
left intraventricular pressure

[7] = tested on: central nervous system; assay: Potentialization of the barbiturate and chloralhydrate anesthesia in mice; assay type: in vivo; conditions: 100 mg/kg
From the text: Potentialization of the barbiturate and chloralhydrate anesthesia in mice.

[8] = tested on: toxicity of pentetrazole; assay: Anticonvulsant property (pentetrazole toxicity in mice); assay type: in vivo; conditions: orally, 100 mg/kg, pentetrazole subcutaneously
From the text: Anticonvulsant property (G. CHEN and R. PORTMAN, A.M.A. Arch. Neurol. Psychiat., 68, 498, 1952).

[9] = tested on: toxicity to yohimbine; assay: Anti-depressant properties (potentialization of yohimbine toxicity in mice); assay type: in vivo
From the text: Anti-depressant properties (W. J. LANG and S. GORSHORN Arch. Int. Pharmacodyn., 142, 457, 1963).

[10] = tested on: Local anesthesia; assay: Local anesthesia (test of J. Regnier); assay type: in vivo; conditions: 1% solution
From the text: Local anesthesia: test of J. Regnier--Doctoral Dissertation, Med., 203 pages, Bruilliard St Dizier, 1929.

[11] = tested on: Urinary excretion; assay: Diuretic effect in rats (Lipschitz); assay type: in vivo; conditions: 100 mg/kg orally
From the text: Diuretic effect (W. LIPSCHITZ J. Pharmacol. Exp. Ther., 79, 97, 1943) in rats.

[12] = Solubility in water; assay type: physicochemical

CC(C)(C)NCC(O)COCC1COc2ccccc2O1 (stereo not shown) [Example 1, 3-tertiobutylamino-1-[(1,4-benzodioxan)-2-ylmethoxy]-2-propanol maleate]
opposition of ectopic rhythm ([1]; ten dogs, ouabain): opposes ectopic rhythm in all the animals
period of activity ([1]; in 80% of the cases): more than 30 minutes
% reduction of auricular tachycardia [2]: 60%
effect on auricular tachycardia [2]: reduces auricular tachycardia substantially and lastingly
persistence of the effect after injection [2]: 30 min
inhibition at 10 µg/mL [3]: 16%
chronotropic effect compared with dihydroquinidine ([3]; isolated rabbit right atrium, Ringer-Locke's solution): definitely a less negative chronotropic effect than dihydroquinidine
functional refractory period of the isolated atrium [4]: extends the functional refractory period of the isolated atrium in the same way as dihydroquinidine
beta-blocking effect ([5]; 5 mg/kg): substantial
cardioselectivity ([5]; 5 mg/kg): cardioselectivity is noted
reduction of isoprenaline tachycardia ([5]; from 1 mg/kg intravenously): significantly reduces the isoprenaline tachycardia starting with a dose of 1 mg/kg intravenously
force of cardiac contraction [6]: decreases the force of cardiac contraction
impact on the cardiovascular system [6]: little impact on the cardiovascular system
peripheral resistances [6]: decreases the force of cardiac contraction and the peripheral resistances
Potentialization of the barbiturate and chloralhydrate anesthesia [7]: nothing to report
protection from toxicity of pentetrazole [8]: does not protect mice from toxicity of pentetrazole
potentialization of toxicity to yohimbine [9]: No potentialization of toxicity to yohimbine
local anesthetic properties compared with Lidocaine [10]: local anesthetic properties superior to Lidocaine
diuretic power [11]: does not have any diuretic power
Urinary excretion ([11]; Control 28%): 35%
solubility [12]: 100 mg/mL

CCC1CN2CCC1CC2[C@@H](O)c1ccnc2ccc(OC)cc12 (stereo partly shown) [Dihydroquinidine, reference compound]
inhibition at 10 µg/mL [3]: 35%
